We go through 27 compounds from ChEMBL document CHEMBL6153118, “Structure Optimization of Natural Product Catalpol to Obtain Novel and Potent Analogs against Heart Failure” (J Med Chem, 2025).

The subject of series [1] is H9c2. Kind of series: Cytoprotective activity against OGD-induced myocardial ischemic injury in rat H9c2 cells assessed as cell viability at 5 uM preincubated for 12 hrs followed by exposure to OGD condition for 3 hrs by CCK8 assay (reference value: 49.23 to 50.05 %). Particulars: time 15 hrs, read-out: Activity. Type of series: functional. Background: Tetrazolium dyes change colour on reduction, which living cells bring about.

For series [2], the system named is H9c2. Put plainly: Cytoprotective activity against OGD-induced myocardial ischemic injury in rat H9c2 cells assessed as cell viability at 50 uM preincubated for 12 hrs followed by exposure to OGD condition for 3 hrs by CCK8 assay (reference value: 49.23 to 50.05 %). Type of series: functional. Particulars: time 15 hrs, read-out: Activity.
For series [3], the system named is H9c2. Kind of series: Cytoprotective activity against OGD-induced myocardial ischemic injury in rat H9c2 cells assessed as cell viability at 100 uM preincubated for 12 hrs followed by exposure to OGD condition for 3 hrs by CCK8 assay (reference value: 49.23 to 50.05 %). In kind it is functional. The following applies: time 15 hrs, read-out: Activity.
The nature of series [4]: Metabolic stability in mouse liver microsomes assessed as intrinsic clearance measured for 5 to 60 mins in presence of NADPH by LC-MS/MS analysis. Type of series: ADME, Microsome. The following applies: time 5-60 min, read-out: CLH. Background: Liver microsomes are a subcellular fraction often used to study metabolism.
Series [5] in a line: Metabolic stability in mouse liver microsomes assessed as half life measured for 5 to 60 mins in presence of NADPH by LC-MS/MS analysis. Type of series: ADME, Microsome. The following applies: time 5-60 min.
The nature of series [6]: Metabolic stability in human liver microsomes assessed as intrinsic clearance measured for 5 to 60 mins in presence of NADPH by LC-MS/MS analysis. In kind it is ADME, Microsome. The following applies: time 5-60 min, read-out: CLH.
The subject of series [7] is H9c2. Put plainly: Cytoprotective activity against OGD-induced myocardial ischemic injury in rat H9c2 cells assessed as decrease in LDH level at 5 to 50 uM preincubated for 12 hrs followed by exposure to OGD condition for 3 hrs by UV absorption analysis. Type of series: functional, cell-based. Particulars: dose 5-50 µM, time 15.0 hrs.
Series [8] concerns H9c2. Put plainly: Cytoprotective activity against OGD-induced myocardial ischemic injury in rat H9c2 cells assessed as decrease in ROS level at 5 to 50 uM preincubated for 12 hrs followed by exposure to OGD condition for 3 hrs by DCFH-DA probe based analysis. Type of series: functional, cell-based. Particulars: dose 5-50 µM, time 15.0 hrs.
Series [9] relates to Mus musculus. Kind of series: Cardioprotective activity in ISO-induced heart failure C57BL/6J mouse assessed as […] in fractional shortening in heart at 20 mg/kg/day, po for 14 days by echocardiography. Type of series: functional, organism-based. Particulars: time 14.0 day.
The subject of series [10] is Mus musculus. Kind of series: Cardioprotective activity in ISO-induced heart failure C57BL/6J mouse assessed as […] in ejection fraction in heart at 20 mg/kg/day, po for 14 days by echocardiography. Type of series: functional, organism-based. The following applies: time 14.0 day.
In series [11] the test system is Cardiac muscle cell. Put plainly: Cytoprotective activity against OGD-induced myocardial ischemic injury in neonatal rat primary cardiomyocytes assessed as decrease in cellular damage preincubated for 12 hrs followed by exposure to OGD condition for 3 hrs. Type of series: functional, cell-based. Particulars: time 15.0 hrs.
Series [12] concerns Mus musculus. Put plainly: Inhibition of cardiomyocyte hypertrophy in ISO-induced heart failure C57BL/6J mouse at 20 mg/kg/day, po for 14 days. In kind it is functional, organism-based. The following applies: time 14.0 day.
The subject of series [13] is Cardiac muscle cell. Put plainly: Cytoprotective activity against OGD-induced myocardial ischemic injury in neonatal rat primary cardiomyocytes assessed as decrease in cellular damage at 1 uM preincubated for 12 hrs followed by exposure to OGD condition for 3 hrs. Type of series: functional, cell-based. Particulars: time 15.0 hrs.
The subject of series [14] is H9c2. Kind of series: Cytoprotective activity against OGD-induced myocardial ischemic injury in rat H9c2 cells assessed as decrease in cell death at 5 to 50 uM preincubated for 12 hrs followed by exposure to OGD condition for 3 hrs by crystal violet staining based analysis. The following applies: dose 5-50 µM, time 15.0 hrs. In kind it is functional.

Structures are written as SMILES. Activity calls are given as the source filed them. The rule behind the calls is not given here.

As to `COc1ccc(/C=C/C(=O)NC[C@]23O[C@H]2[C@@H](O)[C@@H]2C=CO[C@@H](O[C@@H]4O[C@H](CO)[C@@H](O)[C@H](O)[C@H]4O)[C@@H]23)cc1OC`, the viability at 5 µM with H9c2 [1] was found to be 56.6%. The viability at 50 µM in the series with H9c2 [2] was found to be 56.7%.
With `OC[C@H]1O[C@@H](O[C@@H]2OC=C[C@H]3[C@H](O)[C@@H]4O[C@]4(COc4ccc(-c5ccccc5)cc4)[C@@H]23)[C@H](O)[C@@H](O)[C@@H]1O`, the viability at 5 µM in the series on H9c2 [1] was 60%. Besides, in the series on H9c2 [2], the viability at 50 µM amounted to 53.2%.
In the case of `O=C(NCCO[N+](=O)[O-])c1cccnc1` [NICORANDIL], the viability at 100 µM in the series with H9c2 [3] was determined as 58.6%.
As for `O=C(NC[C@]12O[C@H]1[C@@H](O)[C@@H]1C=CO[C@@H](O[C@@H]3O[C@H](CO)[C@@H](O)[C@H](O)[C@H]3O)[C@@H]12)c1ccco1`, the viability at 5 µM with H9c2 [1] amounted to 58.8%. The viability at 50 µM with H9c2 [2] turned out to be 55.6%.
For `COc1ccc(CC(=O)NC[C@]23O[C@H]2[C@@H](O)[C@@H]2C=CO[C@@H](O[C@@H]4O[C@H](CO)[C@@H](O)[C@H](O)[C@H]4O)[C@@H]23)cc1OC` the same measures were 60.9% and 59.4%.
`OC[C@H]1O[C@@H](O[C@@H]2OC=C[C@H]3[C@H](O)[C@@H]4O[C@]4(COc4ccc5c(c4)OCO5)[C@@H]23)[C@H](O)[C@@H](O)[C@@H]1O`: the viability at 5 µM with H9c2 [1] came out at 59.6%. Besides, the viability at 50 µM with H9c2 [2] was determined as 60.7%.
For `O=C(/C=C/c1ccccc1)NC[C@]12O[C@H]1[C@@H](O)[C@@H]1C=CO[C@@H](O[C@@H]3O[C@H](CO)[C@@H](O)[C@H](O)[C@H]3O)[C@@H]12` the same measures were 57.9% and 61.5%.
For `OC[C@H]1O[C@@H](O[C@@H]2OC=C[C@H]3[C@H](O)[C@@H]4O[C@]4(COc4ccc5ccoc5c4)[C@@H]23)[C@H](O)[C@@H](O)[C@@H]1O`, in that order: 56.7% and 57%.
Turning to `O=C(NC[C@]12O[C@H]1[C@@H](O)[C@@H]1C=CO[C@@H](O[C@@H]3O[C@H](CO)[C@@H](O)[C@H](O)[C@H]3O)[C@@H]12)c1cccnc1`, the viability at 5 µM in the series with H9c2 [1] turned out to be 58.2%. For the same compound, the viability at 50 µM in the series on H9c2 [2] was determined as 59.6%.
Consider `O=C(NC[C@]12O[C@H]1[C@@H](O)[C@@H]1C=CO[C@@H](O[C@@H]3O[C@H](CO)[C@@H](O)[C@H](O)[C@H]3O)[C@@H]12)C1CCCCC1`, for which the viability at 5 µM in the series with H9c2 [1] came out at 60%. For the same compound, the viability at 50 µM with H9c2 [2] stood at 61.3%.
On to `OC[C@H]1O[C@@H](O[C@@H]2OC=C[C@H]3[C@H](O)[C@@H]4O[C@]4(COc4cccc5c4CCCC5)[C@@H]23)[C@H](O)[C@@H](O)[C@@H]1O`, for which the viability at 5 µM in the series on H9c2 [1] is 54.4%. Besides, in the series with H9c2 [2], the viability at 50 µM amounted to 55.5%.
`O=C(O)Cc1ccccc1Nc1c(Cl)cccc1Cl` [DICLOFENAC]: the CLint scaled in [4] worked out at 82.9 mL/min/kg; in [6], 202 mL/min/kg. In addition, the half-life in series [5] was 1.1 h.
For `OC[C@H]1O[C@@H](O[C@@H]2OC=C[C@H]3[C@H](O)[C@@H]4O[C@]4(COc4ccccc4)[C@@H]23)[C@H](O)[C@@H](O)[C@@H]1O`, the viability at 5 µM in the series with H9c2 [1] amounted to 59.1%. For the same compound, the viability at 50 µM in the series with H9c2 [2] turned out to be 60.5%.
In the case of `O=C(NC[C@]12O[C@H]1[C@@H](O)[C@@H]1C=CO[C@@H](O[C@@H]3O[C@H](CO)[C@@H](O)[C@H](O)[C@H]3O)[C@@H]12)c1ccncc1`, the viability at 5 µM with H9c2 [1] stood at 54.2%. The viability at 50 µM in the series on H9c2 [2] is 57.5%.
As for `COc1ccc(OC[C@]23O[C@H]2[C@@H](O)[C@@H]2C=CO[C@@H](O[C@@H]4O[C@H](CO)[C@@H](O)[C@H](O)[C@H]4O)[C@@H]23)cc1`, in the series with H9c2 [1], the viability at 5 µM turned out to be 62.5%. Besides, the viability at 50 µM in the series with H9c2 [2] was 57.5%.
For `OC[C@H]1O[C@@H](O[C@@H]2OC=C[C@H]3[C@H](O)[C@@H]4O[C@]4(COc4ccc(C5CCCC5)cc4)[C@@H]23)[C@H](O)[C@@H](O)[C@@H]1O`, in the series on H9c2 [1], the viability at 5 µM came out at 64.5%. Also, the viability at 50 µM in the series on H9c2 [2] stood at 60.8%.
For `OC[C@H]1O[C@@H](O[C@@H]2OC=C[C@H]3[C@H](O)[C@@H]4O[C@]4(COc4ccc(C5CCCCC5)cc4)[C@@H]23)[C@H](O)[C@@H](O)[C@@H]1O`, the viability at 5 µM in the series on H9c2 [1] amounted to 60.9%. The viability at 50 µM in the series with H9c2 [2] was 56.6%.
On to `OC[C@H]1O[C@@H](O[C@@H]2OC=C[C@H]3[C@H](O)[C@@H]4O[C@]4(COc4cc(C(F)(F)F)cc(C(F)(F)F)c4)[C@@H]23)[C@H](O)[C@@H](O)[C@@H]1O`, for which the viability at 5 µM in the series with H9c2 [1] is 56.1%. Also, the viability at 50 µM in the series on H9c2 [2] came out at 50.1%.
Consider `OC[C@H]1O[C@@H](O[C@@H]2OC=C[C@H]3[C@H](O)[C@@H]4O[C@]4(COc4cccc5ccccc45)[C@@H]23)[C@H](O)[C@@H](O)[C@@H]1O`, for which the viability at 5 µM in the series with H9c2 [1] turned out to be 55.5%. Also, the viability at 50 µM in the series with H9c2 [2] was determined as 58.8%.
`OC[C@H]1O[C@@H](O[C@@H]2OC=C[C@H]3[C@H](O)[C@@H]4O[C@]4(COc4ccc(F)cc4)[C@@H]23)[C@H](O)[C@@H](O)[C@@H]1O`: in the series on H9c2 [1], the viability at 5 µM is 61.7%. In the series with H9c2 [2], the viability at 50 µM worked out at 64.6%.
For `O=C(NC[C@]12O[C@H]1[C@@H](O)[C@@H]1C=CO[C@@H](O[C@@H]3O[C@H](CO)[C@@H](O)[C@H](O)[C@H]3O)[C@@H]12)c1ccc2occc2c1`, in the series with H9c2 [1], the viability at 5 µM is 59.1%. Also, the viability at 50 µM in the series with H9c2 [2] is 58%.
As for `O=C(NC[C@]12O[C@H]1[C@@H](O)[C@@H]1C=CO[C@@H](O[C@@H]3O[C@H](CO)[C@@H](O)[C@H](O)[C@H]3O)[C@@H]12)c1cccs1`, the viability at 5 µM with H9c2 [1] is 54.1%. Moreover, in the series with H9c2 [2], the viability at 50 µM was determined as 60.4%.
On to `O=C(NC[C@]12O[C@H]1[C@@H](O)[C@@H]1C=CO[C@@H](O[C@@H]3O[C@H](CO)[C@@H](O)[C@H](O)[C@H]3O)[C@@H]12)c1cncnc1`, for which the viability at 5 µM with H9c2 [1] amounted to 58%. Also, the viability at 50 µM with H9c2 [2] was found to be 57.5%.
`COc1ccc(C(=O)NC[C@]23O[C@H]2[C@@H](O)[C@@H]2C=CO[C@@H](O[C@@H]4O[C@H](CO)[C@@H](O)[C@H](O)[C@H]4O)[C@@H]23)cc1OC`: the viability at 5 µM with H9c2 [1] was 62.1%. Also, the viability at 50 µM in the series on H9c2 [2] was 57.8%.
Regarding `OC[C@H]1O[C@@H](O[C@@H]2OC=C[C@H]3[C@H](O)[C@@H]4O[C@]4(CO)[C@@H]23)[C@H](O)[C@@H](O)[C@@H]1O` [CATALPOL], in the series with H9c2 [1], the viability at 5 µM turned out to be 50.6%. In addition, the result with H9c2 [7], in the series with H9c2 [8], in the series on Mus musculus [9], in the series with Mus musculus [10] and with Cardiac muscle cell [11] was Active. Besides, the viability at 50 µM in the series on H9c2 [2] turned out to be 50.7%. In the series on Mus musculus [12], the inhibition result is “Active”.
For `COc1cc(OC[C@]23O[C@H]2[C@@H](O)[C@@H]2C=CO[C@@H](O[C@@H]4O[C@H](CO)[C@@H](O)[C@H](O)[C@H]4O)[C@@H]23)cc(OC)c1OC`, in the series with H9c2 [1], the viability at 5 µM worked out at 63.9%. Moreover, the viability at 50 µM in the series on H9c2 [2] came out at 55.1%.
Turning to `O=C(NC[C@]12O[C@H]1[C@@H](O)[C@@H]1C=CO[C@@H](O[C@@H]3O[C@H](CO)[C@@H](O)[C@H](O)[C@H]3O)[C@@H]12)c1ccccc1`, the viability at 5 µM in the series with H9c2 [1] was 63.6%. Further, the outcome in the series on Cardiac muscle cell [13] was Active. The viability at 50 µM in the series with H9c2 [2] is 70%. Further, the Activity entry with H9c2 [14] is “Active; Exhibited Superior Protective Efficacy Than Catal-Pol”.

In general, half-life refers to how long it takes for the measured level to halve.
